Results: ChEMBL document CHEMBL3045853, “Bifenthrin longevity at the termiticidal application rate” (2012)
Active and inactive are the calls of the source. No cut-off for these calls is given here.

What was measured:
Reticulitermes flavipes [1] = assay: Termiticidal activity against Reticulitermes flavipes at 0.69 ug/g after 7 days by forced exposure test; type: functional, organism-based
Reticulitermes flavipes [2] = assay: Termiticidal activity against Reticulitermes flavipes after 3 days by forced exposure test; type: functional
Reticulitermes flavipes [3] = assay: Termiticidal activity against Reticulitermes flavipes assessed as mortality at 6.9 ug/g after 7 days by forced exposure test; type: functional
Reticulitermes flavipes [4] = assay: Termiticidal activity against Reticulitermes flavipes assessed as mortality at 0.6 ug/g by forced exposure test; type: functional
Reticulitermes flavipes [5] = assay: Termiticidal activity against Reticulitermes flavipes after 7 days by forced exposure test; type: functional, organism-based
Reticulitermes flavipes [6] = assay: Termiticidal activity against Reticulitermes flavipes assessed as mortality at 0.6 ug/g after 5 months by forced exposure test; type: functional
Reticulitermes flavipes [7] = assay: Termiticidal activity against Reticulitermes flavipes assessed as mortality at 0.6 ug/g after 10 months by forced exposure test; type: functional
Reticulitermes flavipes [8] = assay: Termiticidal activity against Reticulitermes flavipes assessed as mortality at 0.06 ug/g after 7 days by forced exposure test; type: functional
Reticulitermes flavipes [9] = assay: Termiticidal activity against Reticulitermes flavipes assessed as mortality after 4 days by forced exposure test; type: functional
Reticulitermes flavipes [10] = assay: Termiticidal activity against Reticulitermes flavipes assessed as mortality at 0.6 ug/g after 3 days by forced exposure test; type: functional

O=[N+]([O-])/N=C1\NCCN1Cc1ccc(Cl)nc1 [IMIDACLOPRID]
Activity (Reticulitermes flavipes [1]): inactive
Activity (Reticulitermes flavipes [2]): inactive
mortality (Reticulitermes flavipes [3]): 80%

Cc1c(COC(=O)[C@@H]2[C@H](/C=C(\Cl)C(F)(F)F)C2(C)C)cccc1-c1ccccc1 [BIFENTHRIN]
mortality (Reticulitermes flavipes [4]): 100%
Activity (Reticulitermes flavipes [5]): inactive
LC50 (Reticulitermes flavipes [2]): 0.074 µg/g
LC95 (Reticulitermes flavipes [2]): 0.724 µg/g
mortality (Reticulitermes flavipes [6]): 63%
mortality (Reticulitermes flavipes [7]): 73.9%

N#Cc1nn(-c2c(Cl)cc(C(F)(F)F)cc2Cl)c(N)c1[S+]([O-])C(F)(F)F (configuration not stated) [FIPRONIL]
mortality (Reticulitermes flavipes [8]): 100%
LC50 (Reticulitermes flavipes [9]): 0.49 µg/g
mortality (Reticulitermes flavipes [10]): 100%
